Laboratory results taken from ChEMBL document CHEMBL1777708, “An expeditious access to 5-pyrimidinol derivatives from cyclic methylglyoxal diadducts, formation of argpyrimidines under physiological conditions and discovery of new CFTR inhibitors” (Eur J Med Chem, 2011).
The source made the active and inactive calls. The rule behind the calls is not given here.

What was measured:
[1] = Dissociation constant, pKa of the compound by spectrophotometry; type: physicochemical
[2] = molecular target: Cystic fibrosis transmembrane conductance regulator (Homo sapiens) (UniProt P13569); assay: Inhibition of wild type CFTR expressed in CHO cells by [125I]iodide efflux assay; type: cell-based
Chain of Cystic fibrosis transmembrane conductance regulator (Homo sapiens) (P13569 whole entry, looked up): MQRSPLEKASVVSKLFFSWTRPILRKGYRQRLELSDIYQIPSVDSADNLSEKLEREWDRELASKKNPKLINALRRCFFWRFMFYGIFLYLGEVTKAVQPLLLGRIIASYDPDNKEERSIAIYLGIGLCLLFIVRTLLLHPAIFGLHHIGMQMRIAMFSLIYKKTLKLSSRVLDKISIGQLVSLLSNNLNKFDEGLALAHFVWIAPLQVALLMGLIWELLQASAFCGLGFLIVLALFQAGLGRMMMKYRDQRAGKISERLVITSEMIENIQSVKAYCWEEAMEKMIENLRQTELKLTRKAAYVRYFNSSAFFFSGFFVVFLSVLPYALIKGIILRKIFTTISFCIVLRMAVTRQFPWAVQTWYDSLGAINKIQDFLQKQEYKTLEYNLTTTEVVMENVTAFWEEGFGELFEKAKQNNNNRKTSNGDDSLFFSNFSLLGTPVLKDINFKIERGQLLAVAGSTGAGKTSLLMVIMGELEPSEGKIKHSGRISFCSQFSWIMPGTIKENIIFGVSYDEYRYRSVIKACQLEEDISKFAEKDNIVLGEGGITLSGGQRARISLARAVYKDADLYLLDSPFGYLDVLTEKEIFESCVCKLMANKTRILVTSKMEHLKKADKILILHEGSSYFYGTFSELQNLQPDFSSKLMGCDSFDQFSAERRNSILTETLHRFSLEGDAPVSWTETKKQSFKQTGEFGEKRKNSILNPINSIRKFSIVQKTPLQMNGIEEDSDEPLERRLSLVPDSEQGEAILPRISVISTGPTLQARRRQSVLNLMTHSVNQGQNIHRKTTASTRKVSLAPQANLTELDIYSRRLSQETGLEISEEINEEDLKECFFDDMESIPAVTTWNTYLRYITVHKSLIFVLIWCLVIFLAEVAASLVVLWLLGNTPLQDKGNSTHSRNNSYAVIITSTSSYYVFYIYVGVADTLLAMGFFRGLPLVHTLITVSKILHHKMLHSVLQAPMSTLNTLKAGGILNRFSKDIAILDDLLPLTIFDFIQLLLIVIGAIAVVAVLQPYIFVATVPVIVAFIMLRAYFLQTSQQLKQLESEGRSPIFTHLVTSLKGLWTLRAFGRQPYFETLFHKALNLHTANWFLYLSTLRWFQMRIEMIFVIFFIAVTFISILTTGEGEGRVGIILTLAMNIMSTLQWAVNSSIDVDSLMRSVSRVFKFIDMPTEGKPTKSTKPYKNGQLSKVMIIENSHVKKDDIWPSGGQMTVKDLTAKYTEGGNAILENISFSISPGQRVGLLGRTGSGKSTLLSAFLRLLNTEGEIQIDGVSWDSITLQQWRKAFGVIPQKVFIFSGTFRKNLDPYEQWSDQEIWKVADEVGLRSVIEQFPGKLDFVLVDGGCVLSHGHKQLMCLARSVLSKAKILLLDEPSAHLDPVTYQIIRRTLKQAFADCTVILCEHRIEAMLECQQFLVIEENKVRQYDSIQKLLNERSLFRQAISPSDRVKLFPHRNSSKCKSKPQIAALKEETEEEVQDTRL

SMILES | pKa [1] | inhibition [2]
Cc1nc2c3ccccc3cc[n+]2c(C)c1[O-] | 4 | –
C[C@]1(C(=O)O)N=C2C=CC=CN2[C@](C)(O)[C@@H]1O | – | inactive
C[C@]1(C(=O)O)N=C2C=CC=CN2[C@](C)(O)[C@H]1O | – | inactive
